Measured values: article PMC6254985 (Journal of Experimental Pharmacology, 2018)
Where a name gives a salt, the structure may show the parent alone. Read-outs that look alike come from different tables or passages of the source.

What was measured:
human D2S receptor = human D2S receptor (Homo sapiens, UniProt P14416); assay: [35S]GTPγS binding assay, antagonist activity, D2S; assay type: biochemical
human D2L receptor = human D2L receptor (Homo sapiens, UniProt P14416); assay: [35S]GTPγS binding assay, antagonist activity, D2L; assay type: biochemical
[1] = test system: 5-HT2A, 5-HT2B, 5-HT2C, 5-HT6, 5-HT7, D1, D2S, D2L, D3, or D5; assay: Agonist effect in the presence of dopamine or norepinephrine; assay type: cell-based
[2] = cited from earlier work
[3] = test system: alpha-adrenergic receptors; assay: Inhibition of alpha-adrenergic receptors

Sequence of human D2S receptor (P14416 1-414 isoform P14416-2): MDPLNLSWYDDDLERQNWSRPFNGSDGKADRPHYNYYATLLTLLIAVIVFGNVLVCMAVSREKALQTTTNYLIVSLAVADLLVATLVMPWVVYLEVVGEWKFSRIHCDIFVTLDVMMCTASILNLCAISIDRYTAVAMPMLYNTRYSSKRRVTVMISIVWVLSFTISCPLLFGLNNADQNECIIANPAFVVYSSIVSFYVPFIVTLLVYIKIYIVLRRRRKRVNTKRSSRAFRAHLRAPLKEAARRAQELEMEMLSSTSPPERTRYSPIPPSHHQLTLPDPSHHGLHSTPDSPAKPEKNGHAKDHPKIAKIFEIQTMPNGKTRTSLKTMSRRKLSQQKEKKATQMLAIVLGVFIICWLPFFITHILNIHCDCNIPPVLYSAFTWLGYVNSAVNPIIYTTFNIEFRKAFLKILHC
Sequence of human D2L receptor (P14416 whole entry): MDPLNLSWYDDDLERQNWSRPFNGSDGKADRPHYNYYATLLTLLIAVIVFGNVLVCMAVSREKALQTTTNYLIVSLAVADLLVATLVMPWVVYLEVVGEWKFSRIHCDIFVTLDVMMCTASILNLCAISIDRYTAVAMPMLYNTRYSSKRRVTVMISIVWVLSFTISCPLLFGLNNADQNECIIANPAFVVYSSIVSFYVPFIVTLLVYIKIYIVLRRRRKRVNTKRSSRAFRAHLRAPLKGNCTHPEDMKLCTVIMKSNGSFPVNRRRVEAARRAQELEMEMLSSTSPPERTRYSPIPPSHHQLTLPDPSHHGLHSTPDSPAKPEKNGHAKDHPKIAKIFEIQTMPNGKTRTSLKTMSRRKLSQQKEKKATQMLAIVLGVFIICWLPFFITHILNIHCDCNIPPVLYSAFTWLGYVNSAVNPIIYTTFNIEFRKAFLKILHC

Row | SMILES | Antagonist potency of R(−) relative to S(+) enantiomer, D2S (human D2S receptor; based on the IC50) | IC50 (human D2S receptor; read-out: IC50 of enantiomers, D2S, [35S]GTPγS binding assay) [nM] | Antagonist potency of R(−) relative to S(+) enantiomer, D2L (human D2L receptor; based on the IC50) [fold] | IC50 (human D2L receptor; read-out: IC50 of enantiomers, D2L, [35S]GTPγS binding assay) [nM] | Agonist effect in the presence of dopamine or norepinephrine [1] | IC50 (human D2S receptor) [nM] | Parkinsonism or extrapyramidal symptoms [2] | Propensity for weight gain [2] | Inhibition of the alpha-adrenergic receptors [3]
1 | CCc1c(C)[nH]c2c1C(=O)[C@@H](CN1CCOCC1)CC2 (single isomer, unassigned) [R(−) enantiomer] | ~ 100 fold | 48 | ~300 | 21 |  |  |  |  | 
2 | CCc1c(C)[nH]c2c1C(=O)C(CN1CCOCC1)CC2 (stereo not drawn) [SPN-810M, Molindone Hydrochloride] |  |  |  |  | No agonist effect | 84.4 | little to no parkinsonism or extrapyramidal symptoms | low propensity for weight gain | no significant inhibition
